“And” between values parts separate entries of the source, which are not always exact repeats. Equal entries are not always repeated.
Tests used:
[1] = two patients with VKORC1 Asp36Tyr; Geisen 2005b; cited from earlier work
[2] = Warfarin dose requirements in 99 unselected warfarin-treated subjects at stable INR, by VKORC1 Asp36Tyr (D36Y) carrier status; type: in vivo, human
[3] = CYP2C9*1 (wild type) allele; Higashi 2002, Sconce 2005; cited from earlier work
[4] = Warfarin dose requirements in selected warfarin resistant and warfarin sensitive patients at stable therapeutic INR; type: in vivo, human
Procedure: Aliquots of fresh whole blood were drawn for INR determination and DNA extraction.
Data Analyses—Statistical analyses were performed using SPSS software (version 11.0, SPSS Inc.) and GB-STAT software package (version 8.0, Dynamic Microsystems Inc.). Relevant statistical applications are mentioned in the text, odds ratios (OR) are presented with 95% confidence limits, p value of <0.05 indicates statistical significance.

[5] = Effect of combined CYP2C9, VKORC1 and CALU genotypes on warfarin dose requirements (FIG. 2); type: in vivo, human; conditions: dotted line of FIG. 2
Text: The combined genotypes are ordered according to the model proposed by Wallin R, et al., 2001, assuming the reduced VKORC1 activity associated with the VKORC1 6853G→C polymorphism and the reduced activity of CALU associated with the CALU 73G→A (R4Q) polymorphism and assigning equal weight to CYP2C9 and VKORC1 genotypes. […] CYP2C9=cytochrome P450 2C9; VKORC1=vitamin K epoxide reductase component 1; CALU=calumenin;

[6] = 23 selected resistant and sensitive subjects

Structure (SMILES) | phenprocoumon requirement to maintain INR between 2.0 and 3.0 [1] | INR maintained under warfarin, range ([2]; 99 unselected warfarin-treated subjects) | INR maintained under warfarin ([2]; 99 unselected warfarin-treated subjects, stable INR) | warfarin dose requirements, range ([2]; carriers of VKORC1 Asp36Tyr (8/99), upper dose quartile) | warfarin dose requirements, range ([2]; non-carriers of Asp36Tyr (n=91)) | mean warfarin dose required ([2]; non-carriers of Asp36Tyr (n=91), mean±SD) | mean warfarin dose ([2]; whole unselected warfarin-treated group (N=99), stable INR) | warfarin doses associated with CYP2C9*1 variant [3] | INR maintained under warfarin [4, 6] | INR maintained under warfarin, range [4, 6] | mean warfarin weekly dose ([4]; warfarin resistant group (N=15, subjects 1-15)) | mean warfarin weekly dose ([4]; warfarin sensitive group (N=8, subjects 16-23)) | median weight-normalized warfarin dose [5]
CCC(c1ccccc1)c1c(O)c2ccccc2oc1=O (stereo not shown) [phenprocoumon] | 40-50 mg per week |  |  |  |  |  |  |  |  |  |  |  | 
CC(=O)CC(c1ccccc1)c1c(O)c2ccccc2oc1=O (stereo not shown) [warfarin] |  | 1.9-4.2 | 2.7±0.5 | 70-105 mg/week and > 70 mg/week | 8-70 mg/week | 42.7±7.5 mg/week | 39.4±7.8 mg/week | 28-39 mg/week | 2.7±0.5 | 1.9-4.2 | 112.8±29 mg/week and 112.8 mg/week | 10.5±2.32 mg/week and 10.5 mg/week | 4.8 mg/day
